Assays:
airway epithelial cells = conditions: Moore et al. 2004; cited from earlier work
HPV16 = HPV16 genome copy number in W12 cells; type: cell-based, human papillomavirus; conditions: 10 μM Y-27632, FIG. 8
Experimental: The 9E and W12 (20863 clone) cell lines were cultured in F-media on irradiated J2 feeder cells. For the Y-27632 experiments they were cultured in F-medium with or without 10 μM Y-27632 and continually passed for the times indicated.
Cloned viral genomes were cleaved with restriction enzymes to separate viral and vector sequences. The genomes were religated at a concentration of 5 μg/ml to favor intramolecular circularization. Prior to electroporation, J2 feeder cells were removed from the keratinocytes by versene treatment and the HFKs were collected by trypsinization. HFKs (1×10^6) were electroporated with 2 μg of re-circularized viral genomic DNA using the Amaxa Nucleofector II electroporator and the Human Keratinocyte Nucleofector Kit. The Amaxa program optimized for cell survival was used according to the manufacturer's specifications. Cells were removed from the cuvettes immediately following electroporation, and seeded onto 10 cm plates containing irradiated feeder cells and F-medium, in the presence or absence of 10 μM Y-27632, as indicated. At various times post-transfection, low molecular weight DNA was isolated by a modified Hirt extraction procedure (Ustav et al., EMBO J. 10:449-457, 1991). For Southern blot analysis, the isolated DNA was linearized with EcoRI or BamHI, depending on cloning site for each viral genome, and DpnI, to digest any unreplicated input DNA. […]

For CC(N)[C@H]1CC[C@H](C(=O)Nc2ccncc2)CC1 (single isomer, unassigned; (+)) [Y-27632, (+)-trans-N-(4-Pyridyl)-4-(1-aminoethyl)-cyclohexanecarboxamide], the “effect on airway epithelial cells” value (airway epithelial cells) is listed as “induces membrane ruffling, loss of actin stress fibers and apoptosis” and the HPV16 copy number (HPV16) is listed as “partially rescued the decline in copy number”.

Source: patent US8637310B2, “Use of a rock inhibitor to sustain primary human keratinocytes in a proliferative state” (The United States of America, as represented by the …, priority 2008, dated 2014)
